Assays:
[1] = system: ecdysone receptor (EcR) with its natural heterodimeric partner USP; experiment: Transient transfection reporter assay in CV-1 cells, muristerone responsiveness; format: cell-based; conditions: 1µM muristerone A vs ethanol
Experimental: (§1) CV-1 cells were maintained in DMEM supplemented with 10% Fetal Bovine Serum. Transient transfections were performed using DOTAP transfection reagent (Boehringer-Mannheim). Transfections using ß-galactosidase as the reporter were assayed either by Galactolight luminescent assay (Tropix, Bedford, MA) or by standard liquid ONPG assay (Sigma, St. Louis, MO). The values were normalized by co-transfection of CMX-luciferase. Transfections using luciferase as the reporter were assayed by standard techniques using luciferin and ATP. These values were normalized by co-transfection of CMX-ß-galactosidase. Hormone treated cells were treated with ethanol, 50 µM Juvenile Hormone III (Sigma), 1µM muristerone A (Zambon, Bresso, IT), or 1µM dexamethasone (Sigma) unless otherwise noted.
(§2) To maximize the sensitivity of the invention ecdysone inducible system, modifications of the ecdysone receptor were made. The N-terminal transactivation domain of the ecdysone receptor was replaced by the corresponding domain of the glucocorticoid receptor (GR), resulting in the modified ecdysone receptor GEcR (See Figure 1D). CV-1 cells were transfected with the plasmid CMX-GEcR encoding the modified ecdysone receptor as discussed above. After transfection, cells were either treated with ethanol or 1µM muristerone A. This hybrid modified ecdysone receptor boosted muristerone responsiveness from 3- to 11-fold in a transient transfection assay (Fig. 1A).

[2] = system: modified ecdysone receptor GEcR (SEQ ID NO:9) with retinoid X receptor (RXR); experiment: as above; format: cell-based; conditions: 1µM muristerone A vs ethanol
Experimental: as §1, §2

[3] = system: modified ecdysone receptor GEcR (SEQ ID NO:9; N-terminal transactivation domain of GR, DNA- and ligand-binding domains of EcR) with USP; experiment: as above; format: cell-based; conditions: 1µM muristerone A vs ethanol
Experimental: as §1, §2

[4] = system: modified ecdysone receptor VpEcR (SEQ ID NO:7; N-terminal truncation of EcR fused to VP16 activation domain) with RXR; experiment: as above; format: cell-based; conditions: 1µM muristerone A vs no hormone
Experimental: as §1

[5] = system: VpEcR (SEQ ID NO:7) with RXR (CMX-hRXRa) in N13 cells; experiment: Ecdysone responsiveness in stable cell line N13 (293 cells), ß-galactosidase and luciferase reporters; format: cell-based; conditions: 36 hours
Experimental: Stable cell lines were generated containing the modified ecdysone receptor VpEcR, a heterodimeric partner (RXR), and an ecdysone inducible reporter (Figure 2). 293 cells were transfected with the following linearized plasmids, pRC-ESHß, EcREx5-ΔMTV-Luc, CMX-VpEcR, and CMX-hRXRa. The following day, the cells were split 1:10 and were allowed to recover one day prior to selection with 1mg/ml G418 (GIBCO). After 14 days of selection, 14 individual clones were isolated and grown separately in the presence of 0.5mg/ml G418.
One of these cell lines, N13, was grown in the presence or absence of 1µM muristerone for 20 hours. Cell lysates were then assayed for ß-galactosidase and luciferase activities as described in Example 1. X-gal staining was performed on the stable cell lines. Cells were fixed briefly with 10% formaldehyde in PBS and then stained with X-Gal (Molecular Probes, Eugene, OR) for 2 to 6 hours. After 24 hours of treatment with 1µM muristerone, 100% of the cells turned dark blue after 3 hours of staining. Thus, mammalian cells containing the modified ecdysone receptor VpEcR, a heterodimeric partner (RXR), and a reporter gene construct regulated by a modified ecdysone response element, function to efficiently express an exogenous gene in response to a ligand, e.g., ecdysone. […]
Finally, the kinetics of muristerone mediated induction was measured. […]

[6] = system: adult mice; experiment: Toxicity study in adult mice; format: in vivo; conditions: 20mg muristerone A in sesame oil, intraperitoneal, observed approximately two months
Experimental: In order to use muristerone as a potential hormone in mice, its toxicity and bioavailability was examined. For toxicity studies, adult mice were injected intraperitonealy with 20mg of muristerone A suspended in sesame oil. The mice were then observed for approximately two months. […] In addition to the inert qualities of muristerone (an ecdysone), overexpression of VpEcR and RXR appears not to be toxic.

[7] = system: pregnant mice; experiment: Teratogenic study in pregnant mice; format: in vivo; conditions: 20mg muristerone A in sesame oil, mother and pups observed for three months
[8] = system: CV-1 cells transfected with CMX-GEcR, CMX-hRXRa, and EcREx5-DMTV-Luc; experiment: Muristerone bioavailability: serum of injected mice tested on transfected CV-1 cells; format: in vivo
Experimental: For muristerone bioavailability studies, adult mice were injected intraperitoneally with sesame oil with or without 10mg of muristerone, and were subsequently sacrificed for serum collection. After twelve hours, blood was drawn from the mice, and the serum was isolated by brief centrifugation of the whole blood. In order to conduct transfection assays to test for muristerone activity, serum from sesame oil injected mice was divided, and half was supplemented with muristerone to a final concentration of 10µM. The three batches of mouse serum were diluted 1:10 in DMEM and placed onto CV-1 cells transfected with CMX-GEcR, CMX-hRXRa, and EcREx5-DMTV-Luc.

[9] = system: VpEcR and RXR (CD3-VpEcR; CD3-RXR) with ecdysone inducible reporter ESHß; experiment: Muristerone dependent gene expression in receptor/reporter transgenic mice, Northern blot; format: in vivo; conditions: 10mg muristerone intraperitoneal, RNA isolated 48 hours after treatment
Experimental: To produce transgenic mice, the following DNA constructs were prepared and subsequently injected into fertilized eggs: CD3-VpEcR, CD3-RXR, ESHß (Lee et al., J. Exp. Med. 175:1013-1025 (1992)). Two separate lines of transgenic mice were generated harboring either an ecdysone inducible reporter, ESHß, or a T-cell specific expression construct of VpEcR and RXR, respectively. The former are referred to as reporter mice, the latter are referred to as receptor mice, and double transgenic mice are referred to as receptor/reporter mice. Constructs CD3-VpEcR and CD3-RXR were mixed and coinjected, while ESHß was injected alone. Primary genotyping was performed by Southern blot analysis and the transmission of transgenic mice was monitored by dot blot analysis. Receptor mice were analyzed for VpEcR and RXR expression by Northern blot analysis of RNA collected from these mice. For Northern blot analysis, 15µg of total RNA obtained from the thymus, and various tissues as a control, was run on a denaturing gel and blotted onto a nitrocellulose membrane. The blot was probed with a radiolabeled ß-gal-specific probe and exposed on film for 2 days. These receptor mice were healthy, fertile, and appeared normal by visual inspection. In addition, the transgene was transferred to the offspring as expected by Mendelian genetics. […]

How did the “muristerone responsiveness (induction)” value [1] turn out when CC(C)CC[C@@H](O)[C@](C)(O)[C@H]1CC[C@@]2(O)C3=CC(=O)[C@]4(O)C[C@@H](O)[C@@H](O)C[C@]4(C)[C@H]3[C@H](O)C[C@]12C [muristerone A] was run?
The value was 3 fold.

And the induction [2]?
Its induction is 34 fold.

What about the “muristerone responsiveness (induction)” value [3] of the same compound?
The value was 11 fold.

And the induction [4]?
The induction was 212 fold.

And the inducibility ([5]; final concentration 10µM muristerone, ß-galactosidase and luciferase reporters)?
Its inducibility is ~3 orders of magnitude.

What about the induction ([5]; muristerone concentrations as low as 100nM) of the same compound?
The induction was “One-hundred”.

What about the toxicity [6] of the same compound?
Its toxicity is “neither toxic”.

And the teratogenicity [7]?
The teratogenicity was “neither toxic, teratogenic”.

And the “luciferase activity of serum from muristerone treated mice” value ([8]; 10mg muristerone intraperitoneal, serum after twelve hours, diluted 1:10 in DMEM)?
Its value is “comparable to that seen from untreated mouse serum supplemented with 1µM muristerone”.

What about the “activity when injected into mice” value ([8]; injected into mice) of the same compound?
Its value is “maintains its activity”.

And the “inactivation by serum binding proteins” value ([8]; injected into mice)?
Its value is “nor inactivated by serum binding proteins”.

What about the “blunting of activity due to association with serum proteins” value ([8]; mouse serum) of the same compound?
The value was “little or no blunting of activity”.

And the “induction from an ecdysone inducible promoter in the thymus” value [9]?
The value was “significant induction”.

Reference: patent publication EP0910652B1, “HORMONE-MEDIATED METHODS FOR […] EXOGENOUS GENES IN MAMMALIAN SYSTEMS, AND PRODUCTS RELATED THERETO” (THE SALK INSTITUTE FOR BIOLOGICAL STUDIES, priority 1996, dated 1997)
